# From US20240226128A1, “NOVEL COMPOUNDS WITH DUAL INHIBITION ACTIVITY AGAINST SARS-COV-2 CRITICAL ENZYMES RDRP, MPRO AND HUMAN TMPRSS2” (priority 2022, published 2024)
# Columns and labels:
# [1] = tested on: SARS-CoV-2 (NRC-03-nhCoV strain); test: In vitro anti-SARS-CoV-2 activity of RH 1-23 compounds (Vero-E6 cells, crystal violet); type: cell-based
# Description: The antiviral activity was carried out as previously described. Briefly, 96-well tissue culture plates were seeded with 2.4×10^4 Vero-E6 cells/and incubated overnight in Dulbecco's Modified Eagle's medium (DMEM) containing 10% Fetal Bovine Serum (FBS) and 1% penicillin/streptomycin antibiotic mixture at a humidified 37° C. incubator under 5% CO2. The cells were treated with SARS-CoV-2 (NRC-03-nhCoV strain, accession #EPI_ISL_430820) for viral adsorption, which was further overlaid with 50 μl DMEM containing varying concentrations of the tested compounds. Following incubation at 37° C. and 5% C02 for 72 h, the cells were fixed with 100 μl of 4% paraformaldehyde for 20 min and stained at room temperature with 0.1% crystal violet in distilled water for 15 min. The crystal violet dye was then dissolved in 100 μl methanol and the optical density of the obtained color was measured at 570 nm using Anthos Zenyth 200 rt plate reader (Anthos Labtec Instruments, Heerhugowaard, Netherlands).
# SARS-CoV-2 = details: comparator, FDA approved drug; cited from earlier work
Structure (SMILES),in vitro antiviral activity against SARS-CoV-2 [1],in vitro antiviral activity against SARS-CoV-2 (SARS-CoV-2)
"N#C[C@@]1(c2ccc3c(NC(=O)c4ccc(NC(=N)N)cc4)ncnn23)O[C@H](CO)[C@@H](O)[C@H]1O [RH11, (2R,3R,4S,5R)-N-[7-(2-cyano-3,4-dihydroxy-5-hydroxymethyl-tetrahydro-furan-2-yl)-pyrrolo[2,1-f]-[1,2,4]-triazin-4-yl]-4-guanidino-benzamide]",nM range,–
CC(C)C(=O)OC[C@H]1O[C@@H](n2ccc(NO)nc2=O)[C@H](O)[C@@H]1O [Molnupiravir],–,μM range
"CC(C)c1cc(=O)oc2ccc(OC(=O)c3ccc(NC(=N)N)cc3)cc12 [RH12, 4-guanidino-benzoic acid 4-isopropyl-2-oxo-2H-chromen-6-yl ester]",nM range,–
